Where two headings read alike, the source gives them in different places.
Columns and labels:
[1] = test system: HIV-1 94US3393IN (B-Wild Type); assay: PBMC multi-round infection assay, clinical isolate 94US3393IN; type: cell-based; details: Human immunodeficiency virus 1
Experimental: (§1) Based on a preliminary screening, conjugates 5 and 8 were evaluated for their ability to inhibit a drug-resistant virus in a peripheral blood mononuclear cell (PBMC) assay. In this assay, FLT, 5, and 8 were tested against B- and C-wild type and A-17 and 4755–5 multidrug-resistant (MDR) clinical isolates of HIV-1, where compounds were incubated with PBMCs for 6 h and then washed off before the addition of the virus and further culture for 7 days.
(§2) For the assessment of compounds against the wild type (WT; R5; clones = 94US3393IN [B subtype] and 98USMSC5016 [C subtype]) and drug-resistant (clones = 4755−5 and A17) HIV-1 clinical isolates, PHA-P stimulated cells from at least two normal donors were pooled, diluted in fresh media, and plated in the interior wells of a 96-well round-bottom microplate. Pooling PBMCs from more than one donor was used to minimize the variability observed between the individual donors, which results from the quantitative and qualitative differences in HIV infection and overall response to the PHA and IL-2 of primary lymphocyte populations. Each plate contained virus/cell control wells (cells + virus), experimental wells (drug + cells + virus), and compound control wells (drug + media, no cells, necessary for MTS monitoring of cytotoxicity). Test drug dilutions were prepared in microtiter tubes, and each concentration was placed in appropriate wells. Following the addition of the drug dilutions to the PBMCs, a predetermined dilution of virus stock was then placed in each test well (final MOI ≅ 0.1). Because HIV-1 is not cytopathic to PBMCs, the same assay plate can be used for both the antiviral efficacy and cytotoxicity measurements. Compounds were incubated with virus and cells in a 96-well format for 6 h. The cells were then washed by removing 75% of the medium (150 μL) and replacing it with 150 μL of fresh (no drug) medium. The plates were then centrifuged (∼200 g) for 10 min, after which 150 μL of the medium was removed, and an additional 150 μL of fresh medium was added to each well and further incubated for 6 days or until peak reverse transcriptase (RT) activity was detected. A microtiter plate-based RT reaction was utilized. Incorporated radioactivity (counts per minute, CPM) was quantified using standard liquid scintillation techniques. Compound IC50 (50%, inhibition of virus replication) was calculated using statistical software and regression analysis. A cellular uptake study was conducted for fluorescence conjugates 23 and 24 using a previously published procedure with minor modifications. All of the experiments were conducted in triplicate.

[2] = test system: HIV-1 98USMSC5016 (C-Wild Type); assay: PBMC multi-round infection assay, clinical isolate 98USMSC5016; type: cell-based; details: Human immunodeficiency virus 1
Experimental: as §1, §2

[3] = test system: HIV-1 4755-5 MDR (B-MDR); assay: PBMC multi-round infection assay, resistant isolate 4755-5; type: cell-based
Experimental: as §1, §2

[4] = pKa by dip-probe absorption spectroscopy (D-PAS); type: physicochemical; details: methanol-water co-solvent, Yasuda-Shedlovsky extrapolation
Experimental: Physicochemical properties including pKa, Log D, and solubility were determined for 5 (as a model compound). […] It was not possible to measure the partition coefficient (Log P) of the fatty acyl derivatives of FLT and AZT in a standard n-octanol/water mixture because of the insolubility of the compounds in water. The cLog P value was calculated as 5.23 using ChemDraw. […] Since most of 5 is in its neutral form, the Log D value will correspond to the Log P value.
The pKa for 5 was determined using dip-probe absorption spectroscopy (D-PAS). The sample was initially titrated in a fast titration between pH 1.8 and pH 12.1 at concentrations of 33–49 µM under aqueous conditions. Precipitation of the sample from the solution was observed below approximately pH 11. The sample was subsequently titrated under methanol–water co-solvent conditions in two triple titrations from pH 12.2 to pH 3.7 at concentrations of 31–49 µM. The methanol ratio varied from to 25.5–50.8%. No precipitation of the sample from the solution was observed under this condition. The pKa was determined from the spectroscopic data by the Yasuda–Shedlovsky extrapolation of the individual obtained results.

[5] = Solubility (shake-flask, UV detection; organic solvents); type: physicochemical
Experimental: Solubility for 5 was investigated by the shake-flask methodology with UV-spectroscopic sample detection. To produce a saturated solution of 5, approximately 1 mg of solid material was added to 10 mL of an aqueous solution, which was adjusted to pH 2.3 with 0.5 M HCl. The sample was then sonicated in an ultrasonic bath for several hours (at room temperature) before being left to equilibrate for a period of approximately 3 days. The supernatant was then filtered under vacuum through a 0.2 µm PVDF filter plate, and the UV absorption spectrum of the sample was measured (after adjusting the pH of the solution to 11.8 with 0.5 M KOH). Molar absorption coefficients of 5 were obtained at pH 11.8 for 25 µM, 50 µM, and 100 µM solutions of 5, in order to quantify the concentration of the sample in the saturated supernatant. […] However, 5 was less soluble in DMSO (~4.1 mg/mL).

[6] = test system: HIV-1; assay: Anti-HIV activity overall (cell-free and cell-associated assays) and antiviral index; type: cell-based
From the text: Table 2, Table 3 and Table 4 illustrate the anti-HIV-1 activities against the cell-free, cell-associated, and multidrug-resistant virus and sperm inhibiting properties of the selected compounds. In summary, the anti-HIV activity of 5′-substituted derivatives of FLT and AZT (5–18) was dependent on the nature of the 5′-substituent. […] None of the other esters were active against cell-associated virus. […] The difference in the activity of fatty acyl derivatives of FLT compared to each other and FLT may be due to their differences in the rate of uptake and intracellular hydrolysis.
By design, the ester moiety in the conjugates needs to be hydrolyzed to render parent nucleosides and fatty acids to produce anti-HIV activity. The anti-HIV activities of 5′-O-ether substituted FLT and AZT (3 and 4, Scheme 2) with a stable tetradecanyl (myristyl) group were compared with hydrolyzable 5′-O-ester substituted FLT and AZT (6 and 7).
Anti-HIV activities of the compounds were evaluated according to the previously reported procedure. In summary, the HeLa (Human cervical carcinoma: ATCC CCL-2.1) cell line was used to measure the inactivation of both the cell-free virus preparations and virus-infected cell preparations. The cells were plated in culture plates 24 h prior to each experiment. Cell-free viral preparations of HIV-1 strains IIIB (lymphocytotropic strain) and BaL (monocytotropic strain) were used for the cell-free assay. For the cell-associated assay, the SulT1 cells were infected with IIIB virus 5 days prior to the experiment. Cell-free virus and virus-infected cells were mixed with different compounds and diluted to make different concentrations. The mixture was further diluted with the buffer and added to the HeLa cells.

[7] = Human immunodeficiency virus 1, PBMC

Cc1cn([C@H]2C[C@H](F)[C@@H](COC(=O)CCCCCCCCCCCN=[N+]=[N-])O2)c(=O)[nH]c1=O [Compound 5, 3′-fluoro-2′,3′-dideoxy-5′-O-(12-azidododecanoyl)thymidine]
IC50 [1]: 1.1 nM | IC90 [1]: 6.4 nM | IC50 [2]: 2.1 nM | IC90 [2]: 8.6 nM | IC50 [3, 7]: 39.6 nM | IC90 [3, 7]: 507 nM | fold more potent than FLT against 4755-5 ([3]; versus FLT IC50): ≥ 2.7 fold | pKa [4]: 9.67 | solubility ([5]; DMSO, organic solvent or mixture, DMSO, read-out: solubility in DMSO): ~4100 µg/mL | solubility ([5]; aqueous solution adjusted to pH 2.3, pH 2.3, aqueous buffer, thermodynamic from solid, shake-flask, UV detection, read-out: aqueous solubility (upper limit)): ≤ 0.51 µM | solubility ([5]; ethanol, organic solvent or mixture, ethanol, read-out: solubility in ethanol): > 30000 µg/mL | solubility in water/methanol (60:40) ([5]; mixture of water/methanol (60:40)): completely soluble | anti-HIV activity (in words) [6]: significant anti-HIV activity at noncytotoxic concentrations | antiviral index, times better than AZT ([6]; versus AZT): > 30 times | antiviral index, times better than FLT ([6]; versus FLT): > 4 times

Source: PMC9143043, “Synthesis and Biological Evaluation of 5′-O-Fatty Acyl Ester Derivatives of 3′-Fluoro-2′,3′-dideoxythymidine as Potential Anti-HIV Microbicides” (Molecules, 2022)
